From patent publication US9714254B2, “Anilino podophyllin derivative having antitumor activity, method for preparation thereof, and use thereof” (HUBEI UNIVERSITY OF TECHNOLOGY, priority 2013, dated 2017)
Read-outs that look alike come from different tables or passages of the source.

How the values were obtained:
Hela cell line [1] = assay: MTT test of inhibiting tumor cell activity, Hela; settings: read-out: Cytotoxic activity (IC50, μM) Hela
Procedure: (§1) 3, cell lines: Hela, BGC823, A549 cell line and normal human hepatocytes which are available from Wu Han boster Co., Ltd.;
(§2) Hela, BGC823, A549 cell line and normal human hepatocytes in logarithmic growth phase are subjected to 1000 rpm centrifugation for 5 min, supernatant is then discarded, moderate medium is suspended, the cell concentration is adjusted to 3.5×10^4/well, the cells were seeded in 96-wells culture plate, and following experimental groups are set:
(§3) a negative control group; 22 test groups with same concentration (ie: groups of Compound (1) to Compound (22)); 2 control groups: groups of podophyllotoxin, 4′-demethylepipodophyllotoxin and etoposide.
(§4) Taking RPMI1640 containing 10% of calf serum as nutrient solution, 0.10 mL of cells per well is incubated under conditions of 37 V, 5% CO2 and saturated humidity for 24 h to nearly be covered, then the nutrient solution is discarded. […] 100 μl of DMSO is added to each well, then vibrated at 37° C. by shaker table for 30 min, then measuring absorbance (OD) at 492 nm, calculating MTT ratio=OD value of drug group/OD value of the negative control group.

A549 cell line [2] = assay: MTT test of inhibiting tumor cell activity, A549; settings: read-out: Cytotoxic activity (IC50, μM) A549
Procedure: as §1, §2, §3, §4

BGC823 cell line [3] = assay: MTT test of inhibiting tumor cell activity, BGC823; settings: read-out: Cytotoxic activity (IC50, μM) BGC823
Procedure: as §1, §2, §3, §4

Hela cell line [4] = system: Hela cell line
Procedure: as §1, §2, §3, §4

BGC823 cell line [5] = system: BGC823 cell line
Procedure: as §1, §2, §3, §4

A549 cell line [6] = system: A549 cell line
Procedure: as §1, §2, §3, §4

[7] = Hela cells, MTT, 48 h cultivation
[8] = A549 cells, MTT, 48 h cultivation
[9] = BGC823 cells, MTT, 48 h cultivation

Compound | IC50 (Hela cell line [1]; [7]) [µM] | IC50 (A549 cell line [2]; [8]) [µM] | IC50 (BGC823 cell line [3]; [9]) [µM] | also measured
4-N—(N,N-dimethylamino metanil)-4-deoxy-podophyllotoxin [Compound 15] | 1.33 ± 0.2 | > 100 | 2.59 ± 0.21 | –
COc1cc(C2c3cc4c(cc3C(O)C3COC(=O)C23)OCO4)cc(OC)c1O (stereo not drawn) [4′-demethylepipodophyllotoxin, reference compound] | 49 | 52 | 63 | –
COc1cc(C2c3cc4c(cc3C(Nc3ccc(Cl)c(C)c3)C3COC(=O)C23)OCO4)cc(OC)c1OC (stereo not drawn) [Compound 1, 4-N-(4-chloro-3-methylaniline)-4-deoxy-podophyllotoxin] | – | – | – | IC50 (Hela cell line [4]): 1.26 ± 0.37 µM; IC50 (BGC823 cell line [5]): 0.62 ± 0.13 µM; IC50 (A549 cell line [6]): 1.75 ± 0.83 µM
COc1ccc(NC2c3cc4c(cc3C(c3cc(OC)c(OC)c(OC)c3)C3C(=O)OCC23)OCO4)cc1F (stereo not drawn) [Compound 3, 4-N-(3-fluoro-4-methoxyaniline)-4-deoxy-podophyllotoxin] | 2.57 ± 0.87 | 1.97 ± 0.32 | 3.16 ± 1.11 | –
COc1ccc(NC2c3cc4c(cc3C(c3cc(OC)c(O)c(OC)c3)C3C(=O)OCC23)OCO4)cc1F (stereo not drawn) [Compound 4, 4-N-(3-fluoro-4-methoxyaniline)-4-deoxy-4′-demethylepipodophyllotoxin] | 1.97 ± 0.16 | 3.04 ± 0.23 | 0.4 ± 0.17 | –
COc1cc(C2c3cc4c(cc3C(Nc3ccc(Cc5ccc(N)cc5)cc3)C3COC(=O)C23)OCO4)cc(OC)c1OC (stereo not drawn) [Compound 5, 4-N-(4,4′-diaminodiphenylmethane)-4-deoxy-podophyllotoxin] | 7.07 ± 1.63 | 2.32 ± 0.06 | 17.2 ± 0.34 | –
COc1cc(C2c3cc4c(cc3C(Nc3ccc(Cc5ccc(N)cc5)cc3)C3COC(=O)C23)OCO4)cc(OC)c1O (stereo not drawn) [Compound 6, 4-N-(4,4′-diaminodiphenylmethane)-4-deoxy-4′-demethylepipodophyllotoxin] | 0.56 ± 0.17 | 2.2 ± 0.25 | 3.52 ± 0.43 | –
COc1ccccc1NC1c2cc3c(cc2C(c2cc(OC)c(OC)c(OC)c2)C2C(=O)OCC12)OCO3 (stereo not drawn) [Compound 7, 4-N-(o-aminoanisole)-4-deoxy-podophyllotoxin] | 13.4 ± 3.31 | 3.41 ± 0.1 | 6.26 ± 0.36 | –
COc1ccccc1NC1c2cc3c(cc2C(c2cc(OC)c(O)c(OC)c2)C2C(=O)OCC12)OCO3 (stereo not drawn) [Compound 8, 4-N-(o-aminoanisole)-4-deoxy-4′-demethylepipodophyllotoxin] | 1.72 ± 0.3 | 15.3 ± 0.45 | 5.63 ± 1.2 | –
COc1ccc(Cl)cc1NC1c2cc3c(cc2C(c2cc(OC)c(OC)c(OC)c2)C2C(=O)OCC12)OCO3 (stereo not drawn) [Compound 9, 4-N-(4-chloro-2-aminoanisole)-4-deoxy-podophyllotoxin] | 8.07 ± 1.81 | 1.71 ± 0.26 | 1.24 ± 0.06 | –
COc1ccc(Cl)cc1NC1c2cc3c(cc2C(c2cc(OC)c(O)c(OC)c2)C2C(=O)OCC12)OCO3 (stereo not drawn) [Compound 10, 4-N-(4-chloro-2-aminoanisole)-4-deoxy-4′-demethylepipodophyllotoxin] | 1.35 ± 0.18 | 3.72 ± 0.41 | 1.61 ± 0.37 | –
COc1cc(C2c3cc4c(cc3C(Nc3ccccc3C#N)C3COC(=O)C23)OCO4)cc(OC)c1OC (stereo not drawn) [Compound 11, 4-N-(o-aminobenzonitrile)-4-deoxy-podophyllotoxin] | 16.9 ± 1.48 | 1.02 ± 0.07 | > 100 | –
COc1cc(C2c3cc4c(cc3C(Nc3ccccc3C#N)C3COC(=O)C23)OCO4)cc(OC)c1O (stereo not drawn) [Compound 12, 4-N-(o-aminobenzonitrile)-4-deoxy-4′-demethylepipodophyllotoxin] | 1.92 ± 1.21 | 11.6 ± 1.63 | 7.91 ± 0.59 | –
COc1cc(C2c3cc4c(cc3C(Nc3cc(Cl)c(O)c(Cl)c3)C3COC(=O)C23)OCO4)cc(OC)c1OC (stereo not drawn) [Compound 13, 4-N-(2,6-dichloro-4-aminophenol)-4-deoxy-podophyllotoxin] | 17.6 ± 2.39 | 9.66 ± 0.35 | 1.58 ± 0.16 | –
COc1cc(C2c3cc4c(cc3C(Nc3cc(Cl)c(O)c(Cl)c3)C3COC(=O)C23)OCO4)cc(OC)c1O (stereo not drawn) [Compound 14, 4-N-(2,6-dichloro-4-aminophenol)-4-deoxy-4′-demethylepipodophyllotoxin] | 14.7 ± 0.42 | 9.41 ± 0.59 | 13.8 ± 1.42 | –
COc1cc(C2c3cc4c(cc3C(Nc3cccc(S(=O)(=O)N(C)C)c3)C3COC(=O)C23)OCO4)cc(OC)c1O (stereo not drawn) [Compound 16, 4-N—(N,N-dimethylaminometanil)-4-deoxy-4′-demethylepipodophyllotoxin] | 1.06 ± 0.57 | 2.08 ± 0.26 | 1.52 ± 0.39 | –
CCc1ccc([N+](=O)[O-])cc1NC1c2cc3c(cc2C(c2cc(OC)c(OC)c(OC)c2)C2C(=O)OCC12)OCO3 (stereo not drawn) [Compound 17, 4-N-(2-ethyl-5-nitroaniline)-4-deoxy-podophyllotoxin] | 6.01 ± 0.71 | 1.4 ± 0.28 | 4.24 ± 0.79 | –
COc1cc(C2c3cc4c(cc3C(Nc3ccccc3Sc3ccccc3N)C3COC(=O)C23)OCO4)cc(OC)c1OC (stereo not drawn) [Compound 19, 4-N-(2 2′-diaminodiphenylsulfide)-4-deoxy-podophyllotoxin] | 2.14 ± 0.21 | 23.2 ± 0.72 | 6.46 ± 0.33 | –
COc1cc(C2c3cc4c(cc3C(Nc3ccccc3Sc3ccccc3N)C3COC(=O)C23)OCO4)cc(OC)c1O (stereo not drawn) [Compound 20, 4-N-(2 2′-diaminodiphenylsulfide)-4-deoxy-4′-demethylepipodophyllotoxin] | 16.3 ± 0.39 | 1.42 ± 0.12 | 2.17 ± 0.23 | –
COc1cc(C2c3cc4c(cc3C(Nc3ccccc3C(F)(F)F)C3COC(=O)C23)OCO4)cc(OC)c1OC (stereo not drawn) [Compound 21, 4-N-(2-aminobenzotrifluoride)-4-deoxy-podophyllotoxin] | 2.45 ± 3.04 | 2.11 ± 0.05 | 23.2 ± 0.76 | –
COc1cc(C2c3cc4c(cc3C(Nc3ccccc3C(F)(F)F)C3COC(=O)C23)OCO4)cc(OC)c1O (stereo not drawn) [Compound 22, 4-N-(2-aminobenzotrifluoride)-4-deoxy-4′-demethylepipodophyllotoxin] | 5.89 ± 0.48 | 9.72 ± 0.98 | 6.01 ± 0.12 | –
COc1cc([C@@H]2c3cc4c(cc3[C@@H](O[C@@H]3O[C@@H]5CO[C@@H](C)O[C@H]5[C@H](O)[C@H]3O)[C@H]3COC(=O)[C@H]23)OCO4)cc(OC)c1O [VP-16, etoposide, reference compound] | 13.2 ± 1.65 | 31.1 ± 1.72 | 22.3 ± 2.97 | –
COc1cc([C@@H]2c3cc4c(cc3[C@H](O)[C@H]3COC(=O)[C@H]23)OCO4)cc(OC)c1OC [podophyllotoxin, reference compound] | – | – | – | IC50 (Hela cell line [1]; Homo sapiens, HeLa, 48 h): 55 µM; IC50 (A549 cell line [2]; Homo sapiens, A549, 48 h): 67 µM; IC50 (BGC823 cell line [3]; Homo sapiens, BGC-823, 48 h): 75 µM
